Assay [1] addresses T1, Protein RecA (Mycobacterium tuberculosis, UniProt P9WHJ3).
T1 sequence (P9WHJ3 whole entry): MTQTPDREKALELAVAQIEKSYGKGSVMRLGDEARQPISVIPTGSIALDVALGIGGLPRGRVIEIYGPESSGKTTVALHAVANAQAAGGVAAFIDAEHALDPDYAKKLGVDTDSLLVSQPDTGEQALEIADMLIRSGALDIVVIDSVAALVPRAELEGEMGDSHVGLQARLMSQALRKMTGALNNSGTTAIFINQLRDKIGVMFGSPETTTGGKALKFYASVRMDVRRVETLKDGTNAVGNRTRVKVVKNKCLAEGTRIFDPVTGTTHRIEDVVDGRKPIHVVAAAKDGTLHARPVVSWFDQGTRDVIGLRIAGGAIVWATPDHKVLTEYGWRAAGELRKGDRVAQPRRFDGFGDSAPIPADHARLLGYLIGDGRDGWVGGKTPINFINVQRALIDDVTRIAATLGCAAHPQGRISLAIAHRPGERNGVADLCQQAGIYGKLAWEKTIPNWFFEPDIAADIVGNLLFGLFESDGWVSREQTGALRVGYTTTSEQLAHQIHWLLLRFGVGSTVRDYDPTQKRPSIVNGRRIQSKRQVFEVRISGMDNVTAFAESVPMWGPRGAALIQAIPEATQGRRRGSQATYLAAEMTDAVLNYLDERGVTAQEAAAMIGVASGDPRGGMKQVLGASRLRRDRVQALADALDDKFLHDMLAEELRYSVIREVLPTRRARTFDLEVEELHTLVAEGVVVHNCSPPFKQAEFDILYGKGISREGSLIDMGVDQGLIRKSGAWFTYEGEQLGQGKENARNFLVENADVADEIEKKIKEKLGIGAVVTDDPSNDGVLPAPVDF
In words: Fluorescence Cell-Free Homogeneous Dose Retest to Identify Inhibitors of RecA-Intein Splicing Activity. [Related pubchem assays (depositor defined):AID2097, AID2223, AID489010, AID492950]. The class given is functional.

Assay [2] deals with T1, Protein RecA. In words: GFP-RecA MOA-DTT Measured in Biochemical System Using Plate Reader - 2047-05_Inhibitor_Dose_DryPowder_Activity. [Related pubchem assays (depositor defined):AID2223]. Details: species or system Mycobacterium tuberculosis H37Rv.
The target in assay [3] is T2, Heat shock factor protein 1 (Mus musculus, UniProt P38532).
T2 sequence (P38532 whole entry): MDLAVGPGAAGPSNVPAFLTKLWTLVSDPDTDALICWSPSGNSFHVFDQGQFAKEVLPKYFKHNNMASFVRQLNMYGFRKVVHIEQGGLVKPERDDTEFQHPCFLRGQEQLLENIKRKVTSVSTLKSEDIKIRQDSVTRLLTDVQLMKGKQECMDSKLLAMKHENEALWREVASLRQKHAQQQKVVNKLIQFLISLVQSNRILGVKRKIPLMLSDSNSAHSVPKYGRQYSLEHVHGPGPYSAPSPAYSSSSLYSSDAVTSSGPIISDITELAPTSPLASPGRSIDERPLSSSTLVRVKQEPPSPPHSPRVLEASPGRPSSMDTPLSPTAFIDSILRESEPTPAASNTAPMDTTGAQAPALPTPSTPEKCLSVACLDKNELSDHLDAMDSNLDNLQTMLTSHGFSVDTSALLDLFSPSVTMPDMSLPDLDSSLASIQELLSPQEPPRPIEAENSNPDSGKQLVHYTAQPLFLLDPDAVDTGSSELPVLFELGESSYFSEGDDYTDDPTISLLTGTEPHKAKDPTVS
Briefly: inhibition of MG132-induced HSE-luciferase signal, confirmation, cell-based, NIH3T3, luminescence, dose retest (AID 2382).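 Also: NIH3T3 fibroblasts with HSF1-driven luciferase reporter stressed by proteasome inhibitor MG132; luminescence from HSF1-driven luciferase expression after 8 hours of MG132 stress.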 The format is functional.

Assay [4] deals with T1, Protein RecA. In words: RecA Intein Measured in Biochemical System Using Plate Reader - 2047-02_Inhibitor_Dose_DryPowder_Activity. [Related pubchem assays (depositor defined):AID2223]. Details: species or system Mycobacterium tuberculosis H37Rv.
Assay [5] addresses T3, Replicative DNA helicase DnaB (Mycobacterium tuberculosis, UniProt P9WMR3).
T3 sequence (P9WMR3 whole entry): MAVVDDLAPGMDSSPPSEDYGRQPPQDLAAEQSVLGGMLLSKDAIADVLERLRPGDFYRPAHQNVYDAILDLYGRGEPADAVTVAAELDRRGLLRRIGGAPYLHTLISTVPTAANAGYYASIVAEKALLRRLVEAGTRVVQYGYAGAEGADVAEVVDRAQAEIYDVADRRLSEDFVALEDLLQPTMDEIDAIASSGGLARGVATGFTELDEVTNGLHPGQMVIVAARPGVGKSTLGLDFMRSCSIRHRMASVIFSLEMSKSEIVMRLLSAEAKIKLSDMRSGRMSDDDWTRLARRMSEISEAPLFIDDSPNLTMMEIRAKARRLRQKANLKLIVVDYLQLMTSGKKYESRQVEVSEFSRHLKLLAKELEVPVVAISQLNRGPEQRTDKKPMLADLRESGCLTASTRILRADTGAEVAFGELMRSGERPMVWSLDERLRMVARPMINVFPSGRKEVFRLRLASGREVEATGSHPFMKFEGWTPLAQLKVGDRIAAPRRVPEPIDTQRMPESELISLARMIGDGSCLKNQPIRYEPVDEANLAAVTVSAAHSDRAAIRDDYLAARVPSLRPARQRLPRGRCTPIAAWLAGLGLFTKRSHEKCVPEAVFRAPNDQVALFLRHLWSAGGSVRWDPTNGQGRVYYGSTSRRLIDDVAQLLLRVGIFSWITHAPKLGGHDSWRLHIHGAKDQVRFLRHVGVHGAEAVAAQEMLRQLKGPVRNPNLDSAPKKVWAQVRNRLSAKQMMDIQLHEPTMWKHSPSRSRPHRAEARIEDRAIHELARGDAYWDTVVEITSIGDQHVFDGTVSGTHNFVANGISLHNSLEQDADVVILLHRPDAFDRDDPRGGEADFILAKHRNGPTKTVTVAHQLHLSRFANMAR
Briefly: DnaB intein splicing inhibitors, dose response, biochemical, cell-free fluorescence (AID 449749). The class given is functional.

The target of assay [6] is T3, Replicative DNA helicase DnaB. In words: DnaB Intein secondary assay Measured in Biochemical System Using Plate Reader - 2047-04_Inhibitor_Dose_DryPowder_Activity. [Related pubchem assays (depositor defined):AID2223].
Assay [7] is described as follows: Intein inhibitors as potential Tuberculosis drugs, a cytotoxicity screen. [Related pubchem assays (depositor defined):AID2221, AID2223, AID434968, AID435010, AID449749, AID449750, AID489010]. The class given is functional.
For assay [8], the target named is DNA damage-inducible transcript 3 protein (Mus musculus, UniProt P35639). The format is functional, Cricetulus griseus.
Assay [9] in a line: GFP fluorescence signal inhibitors, dose response, artefact control, biochemical, plate reader, dry powder (AID 493243).
Assay [10] is described as follows: Luminescence Cell-Based Dose Retest to Confirm Inhibitors of Cancer Stem Cells. [Related pubchem assays (depositor defined):AID2717, AID2721]. The class given is functional. The conditions noted are these: Homo sapiens.
The target in assay [11] is T4, SUMO-activating enzyme (Homo sapiens, UniProt Q9UBT2). Briefly: SUMOylation inhibitor hit validation, confirmation, SUMOylation inhibitor project, biochemical, AlphaScreen (AID 2018). The class given is functional.
The target of assay [12] is T4, SUMO-activating enzyme. In words: inhibitors of in vitro SUMOylation cascade, primary screen, biochemical, HTRF, uHTS (AID 2006). The format is protein-complex assay.
Assay [13] can be described thus: cells. The format is functional, cell-based.
A short description of assay [14]: cells. The format is functional, cell-based. The source holds these as a separate data set.

The source made the active and inactive calls. Unless noted, the rule behind the calls is not given here.
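For CC50 in this document: cells exposed to compound for 72 hours before luminescence readout.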

T4 sequence (Q9UBE0 whole entry): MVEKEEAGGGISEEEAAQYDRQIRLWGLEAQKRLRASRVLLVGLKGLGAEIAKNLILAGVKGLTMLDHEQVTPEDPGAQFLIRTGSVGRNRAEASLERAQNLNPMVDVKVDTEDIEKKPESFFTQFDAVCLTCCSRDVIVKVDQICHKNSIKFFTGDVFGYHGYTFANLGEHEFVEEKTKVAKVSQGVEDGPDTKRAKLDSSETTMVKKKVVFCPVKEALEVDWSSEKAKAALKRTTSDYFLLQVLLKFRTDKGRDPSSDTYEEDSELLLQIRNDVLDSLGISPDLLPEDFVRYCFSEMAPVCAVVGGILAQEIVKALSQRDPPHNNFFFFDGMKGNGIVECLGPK
T4 sequence (Q9UBT2 whole entry): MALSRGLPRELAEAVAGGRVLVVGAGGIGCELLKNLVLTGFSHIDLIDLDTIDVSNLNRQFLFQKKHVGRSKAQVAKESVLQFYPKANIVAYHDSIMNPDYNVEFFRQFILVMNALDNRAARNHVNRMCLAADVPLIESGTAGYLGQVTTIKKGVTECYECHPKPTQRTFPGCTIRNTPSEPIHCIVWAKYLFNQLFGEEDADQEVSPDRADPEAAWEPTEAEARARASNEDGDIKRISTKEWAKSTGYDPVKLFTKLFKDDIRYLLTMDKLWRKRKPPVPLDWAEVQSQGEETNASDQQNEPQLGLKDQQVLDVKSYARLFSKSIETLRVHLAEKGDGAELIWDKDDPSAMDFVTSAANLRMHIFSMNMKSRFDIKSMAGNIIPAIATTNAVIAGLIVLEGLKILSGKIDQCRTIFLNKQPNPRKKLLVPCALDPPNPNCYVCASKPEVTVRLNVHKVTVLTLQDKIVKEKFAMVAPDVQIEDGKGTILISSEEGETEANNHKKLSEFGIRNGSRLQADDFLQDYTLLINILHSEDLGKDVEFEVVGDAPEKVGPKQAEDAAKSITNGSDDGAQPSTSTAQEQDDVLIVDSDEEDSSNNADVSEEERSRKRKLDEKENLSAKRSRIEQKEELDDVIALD
DNA damage-inducible transcript 3 protein, sequence (P35639 whole entry): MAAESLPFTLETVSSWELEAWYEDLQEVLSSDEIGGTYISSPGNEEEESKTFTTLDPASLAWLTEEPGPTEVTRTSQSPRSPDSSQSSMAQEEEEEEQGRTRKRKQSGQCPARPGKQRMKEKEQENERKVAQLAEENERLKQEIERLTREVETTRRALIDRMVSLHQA

As to `O=C(CCl)Nc1cn(-c2ccccc2)nc1-c1ccc(F)cc1`, the concentration giving a half-maximal response (EC50) is 2.77 µM (active) on Protein RecA [1] and 6.91 µM (active) in [3]. Moreover, the AC50 at Protein RecA [2] is 29.4 µM (active); on Protein RecA [4], 8.58 µM (active); in [5], 2.77 µM (active); in [6] it was 101 µM (active); in [9], 262 µM (active). Also, in assay [7], the CC50 was 6.59 µM (active). The “Absolute IC50 (CHOP)” value in assay [8] stood at 10 µM.
As to `C/C(=N\OCc1nc2ccccc2c(=O)n1/N=C/c1cc([N+](=O)[O-])ccc1O)c1ccccc1`, the AC50 in assay [10] is 7.33 µM (active). The IC50 is 5.22 µM (active) at SUMO-activating enzyme [11] and 41.1 µM (active) at SUMO-activating enzyme [12]. The EC50 in the assay “cells [13]” was 245 µM (active); in “cells [14]”, > 350 µM (not active).
